This note sets out measurements from ChEMBL document CHEMBL4145464, “Prenylated flavonoids as potent phosphodiesterase-4 inhibitors from Morus alba: Isolation, modification, and structure-activity relationship study” (Eur J Med Chem, 2018).

Test [1] concerns the target 3',5'-cyclic-AMP phosphodiesterase 4D (Homo sapiens, UniProt Q08499). As to the kind of experiment: Inhibition of human PDE4D2 catalytic domain (86 to 413 residues) expressed in Escherichia coli strain BL21 using [3H]cAMP as substrate after 15 mins by liquid scintillation counter analysis.
The target of test [2] is Dual specificity calcium/calmodulin-dependent 3',5'-cyclic nucleotide phosphodiesterase 1B (Homo sapiens, UniProt Q01064). As to the kind of experiment: Inhibition of human PDE1B2 catalytic domain (10 to 487 residues) expressed in Escherichia coli strain BL21 using [3H]cAMP as substrate after 15 mins by liquid scintillation counter analysis.
Sequence of Dual specificity calcium/calmodulin-dependent 3',5'-cyclic nucleotide phosphodiesterase 1B (Q01064 whole entry, the tested form may be a part): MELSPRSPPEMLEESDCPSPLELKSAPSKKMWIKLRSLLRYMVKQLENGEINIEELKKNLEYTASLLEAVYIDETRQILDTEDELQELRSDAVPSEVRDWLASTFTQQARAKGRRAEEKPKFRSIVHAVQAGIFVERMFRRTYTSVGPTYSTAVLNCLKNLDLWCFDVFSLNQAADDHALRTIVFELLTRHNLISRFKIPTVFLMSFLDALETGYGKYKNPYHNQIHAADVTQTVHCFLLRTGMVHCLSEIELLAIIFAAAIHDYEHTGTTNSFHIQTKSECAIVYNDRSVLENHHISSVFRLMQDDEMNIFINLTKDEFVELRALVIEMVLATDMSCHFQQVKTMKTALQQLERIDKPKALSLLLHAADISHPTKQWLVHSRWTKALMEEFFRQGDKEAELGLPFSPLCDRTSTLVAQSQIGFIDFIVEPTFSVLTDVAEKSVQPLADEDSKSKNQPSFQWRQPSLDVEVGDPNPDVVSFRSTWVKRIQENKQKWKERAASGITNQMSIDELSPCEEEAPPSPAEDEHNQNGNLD
Test [3] is filed under the species Homo sapiens. As to the kind of experiment: Selectivity ratio of IC50 for human PDE9A2 catalytic domain (181 to 506 residues) expressed in Escherichia coli strain BL21 to IC50 for human PDE4D2 catalytic domain (86 to 413 residues) expressed in Escherichia coli strain BL21.
The species named for test [4] is Homo sapiens. As to the kind of experiment: Selectivity ratio of IC50 for human PDE5A1 catalytic domain (535 to 860 residues) expressed in Escherichia coli strain BL21 to IC50 for human PDE4D2 catalytic domain (86 to 413 residues) expressed in Escherichia coli strain BL21.
The species entered for test [5] is Homo sapiens. Briefly: Selectivity ratio of IC50 for human PDE10A2 catalytic domain (448 to 789 residues) expressed in Escherichia coli strain BL21 to IC50 for human PDE4D2 catalytic domain (86 to 413 residues) expressed in Escherichia coli strain BL21.
Test [6] is filed under the species Homo sapiens. Briefly: Selectivity ratio of IC50 for human PDE1B2 catalytic domain (10 to 487 residues) expressed in Escherichia coli strain BL21 to IC50 for human PDE4D2 catalytic domain (86 to 413 residues) expressed in Escherichia coli strain BL21.
For test [7], the species on record is Homo sapiens. Briefly: Selectivity ratio of IC50 for human PDE2A3 catalytic domain (222 to 904 residues) expressed in Escherichia coli strain BL21 to IC50 for human PDE4D2 catalytic domain (86 to 413 residues) expressed in Escherichia coli strain BL21.
Test [8] deals with cGMP-specific 3',5'-cyclic phosphodiesterase (Homo sapiens, UniProt O76074). Briefly: Inhibition of human PDE5A1 catalytic domain (535 to 860 residues) expressed in Escherichia coli strain BL21 using [3H]cAMP as substrate after 15 mins by liquid scintillation counter analysis.
The target of test [9] is cAMP and cAMP-inhibited cGMP 3',5'-cyclic phosphodiesterase 10A (Homo sapiens, UniProt Q9Y233). As to the kind of experiment: Inhibition of human PDE10A2 catalytic domain (448 to 789 residues) expressed in Escherichia coli strain BL21 using [3H]cAMP as substrate after 15 mins by liquid scintillation counter analysis.
Sequence of cAMP and cAMP-inhibited cGMP 3',5'-cyclic phosphodiesterase 10A (Q9Y233 whole entry, the tested form may be a part): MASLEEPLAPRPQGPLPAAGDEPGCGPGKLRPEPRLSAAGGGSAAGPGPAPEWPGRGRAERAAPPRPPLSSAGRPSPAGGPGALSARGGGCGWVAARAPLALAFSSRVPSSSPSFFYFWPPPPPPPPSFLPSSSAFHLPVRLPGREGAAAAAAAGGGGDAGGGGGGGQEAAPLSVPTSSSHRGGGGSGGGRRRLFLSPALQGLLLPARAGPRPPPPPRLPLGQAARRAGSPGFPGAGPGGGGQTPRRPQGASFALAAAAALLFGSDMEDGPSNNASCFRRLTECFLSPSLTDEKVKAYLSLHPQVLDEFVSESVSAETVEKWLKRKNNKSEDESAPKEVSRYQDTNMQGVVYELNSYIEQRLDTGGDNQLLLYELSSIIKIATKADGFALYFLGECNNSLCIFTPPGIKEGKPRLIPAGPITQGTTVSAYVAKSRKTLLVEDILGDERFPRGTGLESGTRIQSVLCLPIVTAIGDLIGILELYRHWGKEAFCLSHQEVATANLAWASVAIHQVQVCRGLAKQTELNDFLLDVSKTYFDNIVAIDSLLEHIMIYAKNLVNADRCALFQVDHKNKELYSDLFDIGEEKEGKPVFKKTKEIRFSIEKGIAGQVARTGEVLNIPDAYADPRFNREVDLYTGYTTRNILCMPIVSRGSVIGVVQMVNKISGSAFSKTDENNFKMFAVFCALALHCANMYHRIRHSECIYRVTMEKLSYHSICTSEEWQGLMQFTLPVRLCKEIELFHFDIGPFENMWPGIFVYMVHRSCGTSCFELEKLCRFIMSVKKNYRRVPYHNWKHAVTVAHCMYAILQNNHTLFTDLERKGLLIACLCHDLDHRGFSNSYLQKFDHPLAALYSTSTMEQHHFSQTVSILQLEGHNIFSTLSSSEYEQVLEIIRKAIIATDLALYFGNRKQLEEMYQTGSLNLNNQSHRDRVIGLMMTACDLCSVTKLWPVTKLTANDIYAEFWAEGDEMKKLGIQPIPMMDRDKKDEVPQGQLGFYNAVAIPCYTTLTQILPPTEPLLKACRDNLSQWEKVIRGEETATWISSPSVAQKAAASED
Test [10] has as its target High affinity cGMP-specific 3',5'-cyclic phosphodiesterase 9A (Homo sapiens, UniProt O76083). As to the kind of experiment: Inhibition of human PDE9A2 catalytic domain (181 to 506 residues) expressed in Escherichia coli strain BL21 using [3H]cAMP as substrate after 15 mins by liquid scintillation counter analysis.
Test [11] deals with cGMP-dependent 3',5'-cyclic phosphodiesterase (Homo sapiens, UniProt O00408). As to the kind of experiment: Inhibition of human PDE2A3 catalytic domain (222 to 904 residues) expressed in Escherichia coli strain BL21 using [3H]cAMP as substrate after 15 mins by liquid scintillation counter analysis.
Sequence of cGMP-dependent 3',5'-cyclic phosphodiesterase (O00408 whole entry, the tested form may be a part): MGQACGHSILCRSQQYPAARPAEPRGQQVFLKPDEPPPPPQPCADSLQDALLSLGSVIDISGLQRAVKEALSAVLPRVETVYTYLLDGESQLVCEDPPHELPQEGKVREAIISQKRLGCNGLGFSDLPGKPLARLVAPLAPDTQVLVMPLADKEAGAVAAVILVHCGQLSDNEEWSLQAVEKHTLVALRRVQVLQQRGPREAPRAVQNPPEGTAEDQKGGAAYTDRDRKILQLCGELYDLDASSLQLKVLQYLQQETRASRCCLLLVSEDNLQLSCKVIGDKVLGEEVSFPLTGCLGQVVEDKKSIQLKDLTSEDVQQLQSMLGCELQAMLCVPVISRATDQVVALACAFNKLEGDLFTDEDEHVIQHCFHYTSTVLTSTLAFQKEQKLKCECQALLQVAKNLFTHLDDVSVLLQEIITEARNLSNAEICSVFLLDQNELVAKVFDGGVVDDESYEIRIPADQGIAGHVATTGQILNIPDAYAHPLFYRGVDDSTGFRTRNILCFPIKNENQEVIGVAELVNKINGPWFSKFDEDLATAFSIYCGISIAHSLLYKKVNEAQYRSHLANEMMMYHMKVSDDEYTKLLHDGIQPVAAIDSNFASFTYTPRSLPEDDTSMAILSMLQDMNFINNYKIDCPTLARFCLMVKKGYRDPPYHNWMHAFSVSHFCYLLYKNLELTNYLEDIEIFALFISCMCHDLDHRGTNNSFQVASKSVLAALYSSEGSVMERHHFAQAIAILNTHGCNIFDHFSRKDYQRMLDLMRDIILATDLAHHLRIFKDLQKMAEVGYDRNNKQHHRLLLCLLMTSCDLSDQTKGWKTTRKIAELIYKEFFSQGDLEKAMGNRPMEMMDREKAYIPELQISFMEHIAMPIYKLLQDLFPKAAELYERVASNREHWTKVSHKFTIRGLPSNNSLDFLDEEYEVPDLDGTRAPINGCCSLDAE

Sequence of 3',5'-cyclic-AMP phosphodiesterase 4D (Q08499 whole entry, the tested form may be a part): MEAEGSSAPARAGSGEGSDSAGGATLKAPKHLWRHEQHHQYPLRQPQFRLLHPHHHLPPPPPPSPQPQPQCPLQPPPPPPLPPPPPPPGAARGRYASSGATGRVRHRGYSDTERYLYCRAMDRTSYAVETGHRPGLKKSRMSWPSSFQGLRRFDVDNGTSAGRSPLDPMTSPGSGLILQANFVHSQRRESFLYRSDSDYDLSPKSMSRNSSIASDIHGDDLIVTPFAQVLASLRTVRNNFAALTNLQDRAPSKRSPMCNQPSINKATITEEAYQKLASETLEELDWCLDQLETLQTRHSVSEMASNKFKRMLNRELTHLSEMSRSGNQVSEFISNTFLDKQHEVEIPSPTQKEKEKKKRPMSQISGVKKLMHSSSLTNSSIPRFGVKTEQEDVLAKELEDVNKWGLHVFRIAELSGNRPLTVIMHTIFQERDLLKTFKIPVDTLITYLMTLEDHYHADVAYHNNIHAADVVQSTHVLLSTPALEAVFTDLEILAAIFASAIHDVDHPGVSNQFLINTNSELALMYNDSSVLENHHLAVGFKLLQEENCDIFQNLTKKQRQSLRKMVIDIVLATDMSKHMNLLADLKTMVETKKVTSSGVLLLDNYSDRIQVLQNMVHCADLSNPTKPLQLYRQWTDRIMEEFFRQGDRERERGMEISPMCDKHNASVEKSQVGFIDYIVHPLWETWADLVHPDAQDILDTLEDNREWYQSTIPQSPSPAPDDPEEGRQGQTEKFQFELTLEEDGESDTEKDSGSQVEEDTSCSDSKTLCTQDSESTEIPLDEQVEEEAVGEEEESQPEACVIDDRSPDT
Sequence of High affinity cGMP-specific 3',5'-cyclic phosphodiesterase 9A (O76083 whole entry, the tested form may be a part): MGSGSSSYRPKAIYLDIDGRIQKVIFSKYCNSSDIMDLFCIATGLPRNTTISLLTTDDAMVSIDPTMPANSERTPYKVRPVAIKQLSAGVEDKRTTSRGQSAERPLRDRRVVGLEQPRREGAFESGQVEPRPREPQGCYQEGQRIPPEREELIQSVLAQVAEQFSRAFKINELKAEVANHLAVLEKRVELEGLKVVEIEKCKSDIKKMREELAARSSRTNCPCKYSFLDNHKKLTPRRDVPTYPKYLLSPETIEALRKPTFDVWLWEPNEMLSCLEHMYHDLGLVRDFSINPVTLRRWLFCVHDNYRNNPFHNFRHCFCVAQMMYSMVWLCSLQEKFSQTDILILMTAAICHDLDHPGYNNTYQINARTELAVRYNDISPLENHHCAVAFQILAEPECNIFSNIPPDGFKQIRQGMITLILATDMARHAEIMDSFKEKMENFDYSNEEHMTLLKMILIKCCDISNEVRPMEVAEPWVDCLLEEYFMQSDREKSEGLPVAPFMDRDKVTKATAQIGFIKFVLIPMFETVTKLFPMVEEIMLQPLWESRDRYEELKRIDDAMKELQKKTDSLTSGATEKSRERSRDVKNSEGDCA

`CC(C)=CCc1c(-c2ccc(O)cc2O)oc2c3c(cc(O)c2c1=O)OC(C)(C)C=C3` [MORUSIN]: the midpoint of inhibition in test [1], the IC50, lay at 900 nM.
`CC(C)=CCC/C(C)=C/Cc1c(O)ccc([C@@H]2CC(=O)c3c(O)cc(O)cc3O2)c1O`: it took 2330 nM to reach half-maximal inhibition in test [1] (IC50).
Regarding `CC(C)=CCC/C(C)=C/Cc1cc([C@@H]2CC(=O)c3c(O)cc(O)cc3O2)c(O)cc1O`, in test [1], the IC50 is 1260 nM.
Take `CC(C)=C[C@H]1Oc2cc(O)ccc2-c2oc3c4c(cc(O)c3c(=O)c21)OC(C)(C)C=C4`: the IC50 in [2] turned out to be 300 nM; in test [8], 410 nM; in test [9] it was 510 nM; in test [10] it was 350 nM; in test [11] it was 590 nM; in [1], 5.4 nM. Besides, the Ratio IC50 in test [3] came to 65; in [4] it was 76; in test [5] it was 94; in test [6] it was 55; in test [7], 109. In addition, in test [1], the inhibition entry was “Dose-dependent effect”.
As to `CC(C)C[C@@H]1Oc2cc(O)ccc2-c2oc3c4c(cc(O)c3c(=O)c21)OC(C)(C)CC4`, the IC50 in test [1] amounted to 7500 nM.
In turn, `COC1CC(C)(C)Oc2cc(O)c3c(=O)c(CC=C(C)C)c(-c4ccc(O)cc4O)oc3c21` (stereo unspecified) returned an IC50 in test [1] of 20 nM.
On the same count and under the same terms, to `COc1ccc2c(c1)O[C@@H](C=C(C)C)c1c-2oc2c3c(cc(O)c2c1=O)OC(C)(C)C=C3` belongs 8600 nM.
On the same count and under the same terms, to `CC1(C)C=Cc2c(ccc(-c3cc(=O)c4c(O)cc5c(c4o3)C=CC(C)(C)O5)c2O)O1` belongs 30 nM.
As to `CC(C)=CCc1c(O)cc(O)c2c(=O)c3c(oc12)-c1ccc(O)cc1OC3C=C(C)C` (stereo unspecified), the IC50 in test [1] was 40 nM.
In [1], `CC(C)=CCc1c(O)cc(O)c2c(=O)cc(-c3ccc(O)cc3)oc12` displayed a half-maximal inhibitory concentration (IC50) of 630 nM.
Take `CC(C)=CC1Oc2cc(O)ccc2-c2oc3cc(O)cc(O)c3c(=O)c21` (stereo unspecified): the IC50 in test [1] stood at 400 nM.
Still for that read-out and setting: to `C=CC(C)(C)c1cc(-c2cc(=O)c3c(O)cc(O)cc3o2)c(O)cc1O` belongs 1880 nM; to `CC(C)=CCc1cc([C@@H]2CC(=O)c3c(O)cc(O)cc3O2)c(O)c(CC=C(C)C)c1O`, 9900 nM.
Compound `CC(=O)Oc1ccc2c(c1)O[C@H](C=C(C)C)c1c-2oc2c3c(cc(O)c2c1=O)OC(C)(C)C=C3` registered an IC50 in test [1] of 4890 nM.
On the same count and under the same terms, to `CC(C)=CCC/C(C)=C/Cc1c(O)c(CC=C(C)C)cc([C@@H]2CC(=O)c3c(O)cc(O)cc3O2)c1O` belongs 2190 nM.
In test [1], `CC(C)=CCCC1(C)C=Cc2cc(C3CC(=O)c4c(O)cc(O)cc4O3)c(O)cc2O1` (stereo unspecified) displayed an IC50 of 3590 nM.
Consider `COc1ccc2c(c1)O[C@H](C=C(C)C)c1c-2oc2c3c(cc(O)c2c1=O)OC(C)(C)C=C3`, for which the IC50 in [1] turned out to be 5180 nM.
Same read-out and setting: under `C/C(C=O)=C\Cc1c(-c2ccc(O)cc2O)oc2c3c(cc(O)c2c1=O)OC(C)(C)C=C3` stands 9210 nM.
Consider `CC(C)=C[C@@H]1Oc2cc(O)ccc2-c2oc3c4c(cc(O)c3c(=O)c21)OC(C)(C)C=C4`, for which, in [1], the midpoint of inhibition, the IC50, lay at 250 nM and the inhibition entry was “Dose-dependent effect”.
As to `CC(C)=CCCC1(C)C=Cc2c(ccc(-c3oc4cc(O)cc(O)c4c(=O)c3CC=C(C)C)c2O)O1` (stereo unspecified), in test [1], the IC50 stood at 270 nM.
Compound `CC(C)=CCc1c(-c2ccc(O)cc2O)oc2c(CC=C(C)C)c(O)cc(O)c2c1=O` [KUWANON C] gave an IC50 in [1] of 310 nM.
`CC1(C)C=Cc2c(c3c(c4c(=O)cc(-c5ccc(O)cc5O)oc24)OC(C)(C)CC3)O1` had an IC50 in test [1] of 870 nM.
The same measure, in the same setting: to `CC(C)C[C@H]1Oc2cc(O)ccc2-c2oc3c4c(cc(O)c3c(=O)c21)OC(C)(C)CC4` belongs 4350 nM; to `CC(C)=CCc1c(O)cc2oc(-c3ccc(O)cc3O)c(CC=C(C)C)c(=O)c2c1O` [CUDRAFLAVONE C], 260 nM.

The term IC50 denotes the concentration at which inhibition is half-maximal.
